The conditions of data set [1]: in words; second component of the two-drug combination; cited from earlier work.
Another data set concerns L1210 Leukemia. Briefly: Activity against L1210 leukemia, 10^5 L1210 cell IP (Table IV). Type of data set: in vivo, mice. The conditions noted are these: for Lifespan: untreated control 8; for lifespan and cures of mice implanted with leukemia L1210 cells: FIGS. 1 and 3. On the procedure:
(§1) These higher levels of the active agent that last for longer periods of time allow effective treatment with these drugs given once a day for nine days (see FIGS. 1, 2 and 3).
(§2) It has been noted that the antitumor activity of 9-β-D-arabinofuranosyl adenine (ara-A) is enhanced by the incorporation of a fluorine atom at the 2-carbon. […] To overcome this difficulty two water-soluble derivatives, the 5'-formate and the 5'-phosphate, were prepared.

The next data set relates to L1210/0 Leukemia. Briefly: Activity against L1210/0 leukemia, 10^5 IP (Tables II and III). Type of data set: in vivo, mice. How it is done:
as §1
Treatment: IP; QD 1-9 Days*
*2'dCF Given 30 Minutes Before araA
as §2

Data set [2] is described as follows: Conversion to the parent drug in vivo (statement). The note with it: in words.
Data set [3] is described as follows: Water solubility (statement). Type of data set: physicochemical. The note with it: in words.
A further data set has as its system L1210 cells. Briefly: Nanomoles of triphosphate per gm L1210 cells after treatment (Table I). Type of data set: in vivo, mice. The conditions noted are these: for levels of F-ara-A triphosphate in leukemic cells versus F-ara-A itself: mouse, in vivo. How it is done: as §1, §2
[4] abbreviates: Table IV, 375 mg/kg/day, q3h, days 1,5,9.
Where [5] appears, read: Table II, 150 mg/kg/dose, IP, QD 1-9 days.
[6] abbreviates: mice implanted with leukemia L1210 cells.
Where [7] appears, read: Table IV, 219 mg/kg/day, qd 1-9.

SMILES strings stand for the structures.

As for `OC[C@H]1O[C@@H](n2cnc3c2NC=NC[C@H]3O)C[C@@H]1O` [2'-dCF], in data set [1], the toxicity entry was “clear but not completely defined toxicity”.
Regarding `Nc1ncnc2c1ncn2[C@@H]1O[C@H](COP(=O)(O)O)[C@@H](O)[C@@H]1O` [Ara-AMP, 9-β-D-arabinofuranosyl adenine 5'-phosphate, reference compound], in the data set with L1210 Leukemia (setting [4]), the “% ILS” value was determined as 62% and the Lifespan stood at 13 days.
For `Nc1nc(F)nc2c1ncn2[C@@H]1O[C@H](COC=O)[C@@H](O)[C@@H]1O` [F-ara-A5'-formate, 9-(5-O-formyl-β-D-arabinofuranosyl)-2-fluoroadenine], in the data set on L1210/0 Leukemia (setting [5]), the “% ILS” value was 177% and the Cures was 3/10. The “Median Lifespan” value in the data set on L1210/0 Leukemia (Table II, 150 mg/kg/dose, IP, QD 1-9 days, untreated control 9) stood at 25 days. In the data set with L1210/0 Leukemia (setting [6]), the Cures result is “three” and the increase in lifespan came out at 177%. Moreover, in data set [2], the “conversion to the parent drug in vivo” value is “converted to the parent drug in vivo”. Further, in the data set with L1210 Leukemia, the “lifespan and cures of mice implanted with leukemia L1210 cells” value is “good increases in lifespan and some cures”. In data set [3], the solubility result is recorded as “water-soluble”. In the data set with L1210 cells, the “levels of F-ara-A triphosphate in leukemic cells versus F-ara-A itself” value is listed as “higher levels”.
Turning to `Nc1nc(F)nc2c1ncn2[C@@H]1O[C@H](CO)[C@@H](O)[C@@H]1O` [F-ara-A, 9-β-D-arabinofuranosyl-2-fluoroadenine, reference compound], the solubility result in data set [3] is listed as “very insoluble”. Moreover, the “levels of the triphosphate in L1210 versus ara-A+2'dCF” value with L1210 cells (near equimolar doses) is given as “higher levels”.
For `Nc1nc(F)nc2c1ncn2[C@@H]1O[C@H](COP(=O)(O)O)[C@@H](O)[C@@H]1O` [F-ara-AMP, 9-β-D-arabinofuranosyl-2-fluoroadenine 5'-phosphate], the “conversion to the parent drug in vivo” value in data set [2] is listed as “converted to the parent drug in vivo”. In addition, the “lifespan and cures of mice implanted with leukemia L1210 cells” value in the data set with L1210 Leukemia is “good increases in lifespan and some cures”. In addition, in the data set on L1210 Leukemia (setting [7]), the “% ILS” value is 125%, the Cures is 3/10 and the Lifespan is 18 days. In addition, the solubility result in data set [3] is “water-soluble”. In addition, the “levels of F-ara-A triphosphate in leukemic cells versus F-ara-A itself” value in the data set with L1210 cells is on record as “higher levels”.
For `Nc1ncnc2c1ncn2[C@@H]1O[C@H](CO)[C@@H](O)[C@@H]1O` [ara-A, 9-β-D-arabinofuranosyl adenine, reference compound], the effectiveness entry with L1210 Leukemia (optimal schedule, every 3 hours for 24 hours) was “not very effective”.

These data come from patent US4357324A, “Prodrug derivatives of 9β-D-arabinofuranosyl-2-fluoroadenine” (The United States of America as represented by the …, priority 1981, dated 1982).
